Values of other authors, collected in US20170020817A1, “SOLID NANOPARTICLE FORMULATION OF MICROTUBLE INHIBITORS WITH REDUCED OSTWALD REPENING FOR ORAL ADMINISTRATION” (Luminus Biosciences, Inc., priority 2013, published 2017).

Tests used:
microtubules = conditions: most test systems

| solubility in water | SMILES | effectiveness relative to epothilone A (microtubules) |
| --- | --- | --- |
| – | C/C(=C\c1csc(C)n1)[C@@H]1C[C@@H]2O[C@]2(C)CCC[C@H](C)[C@H](O)[C@@H](C)C(=O)C(C)(C)[C@@H](O)CC(=O)O1 [epothilone B] | approximately ten-time more effective |
| about 8 mg/L | CO[C@H]1C(=O)[C@]2(C)[C@@H](OC)C[C@H]3OC[C@@]3(OC(C)=O)[C@H]2[C@H](OC(=O)c2ccccc2)[C@]2(O)C[C@H](OC(=O)[C@H](O)[C@@H](NC(=O)OC(C)(C)C)c3ccccc3)C(C)=C1C2(C)C [cabazitaxel] | – |
| about 0.4 mg/L | CC(=O)O[C@H]1C(=O)[C@@]2(C)[C@H]([C@H](OC(=O)c3ccccc3)[C@]3(O)C[C@H](OC(=O)[C@H](O)[C@@H](NC(=O)c4ccccc4)c4ccccc4)C(C)=C1C3(C)C)[C@]1(OC(C)=O)CO[C@@H]1C[C@@H]2O [paclitaxel] | – |
| about 3.5 mg/L | C/C(=C\c1csc(C)n1)[C@@H]1C[C@@H]2O[C@]2(C)CCC[C@H](C)[C@H](O)[C@@H](C)C(=O)C(C)(C)[C@@H](O)CC(=O)N1 [Ixabepilone] | – |
| about 14 mg/L | CC(=O)O[C@@]12CO[C@@H]1C[C@H](O)[C@@]1(C)C(=O)[C@H](O)C3=C(C)[C@@H](OC(=O)[C@H](O)[C@@H](NC(=O)OC(C)(C)C)c4ccccc4)C[C@@](O)([C@@H](OC(=O)c4ccccc4)[C@H]21)C3(C)C [docetaxel] | – |
